Measurements taken from US20030069295A1, “Use of histamine H3 receptor inverse agonists for the control of appetite and treatment of obesity” (Gliatech, Inc., priority 2001, published 2003).
Read-outs that look alike come from different tables or passages of the source.

What was measured:
[1] = system: Sprague-Dawley rats; experiment: Food intake study in Sprague-Dawley rats; assay type: in vivo, rat; conditions: two hours after intraperitoneal administration; result in words
Description: The compounds summarized in Table 3 were examined for their ability to suppress food consumption by adult Sprague-Dawley rats. Male Sprague Dawley rats were purchased from Harlan Laboratories of Indianapolis, Ind. Rats were housed one per cage and maintained on a 12 hour light/dark schedule (lights-out at 12:30 p.m.) with ad libitum access to powdered Teklad Mouse/Rat Diet 7012 (available from Harlan Laboratories of Indianapolis, Ind.) and water. Rats were acclimated to laboratory conditions and food for 1 to 2 weeks prior to initiating food intake studies. On the day of experiments, test compounds were solubilized or suspended in vehicle/carrier and administered to rats (i.p. or p.o.) 30 to 60 minutes prior to the onset of the dark cycle. Food intake was determined at 1, 2, 4, and 24 hours following the onset of the dark cycle. Alternatively, rats were fasted (water provided) for 24 hours prior to evaluating the effects of compounds on food intake. For these studies, compounds or vehicle/carrier were administered and rats were placed in standard small animal metabolism chambers with ad ibitum access to powdered Teklad Mouse/Rat Diet 7012 and water. Food intake was determined at 2 and 4 hours following the onset of feeding.
Data is cumulative food intake in grams, mean±sem. In the table, * indicates a significant decrease in food intake compared to the vehicle-treated rats (t-test, p<0.05).
(§1) The percent reduction in food intake by rats two hours after intraperitoneal administration of each compound is shown in Table 5. […] In Table 5, * indicates a significant decrease in food intake compared to the vehicle-treated rats (t-test, p<0.05). The ex vivo binding values in Table 5 represent the drug dose required to obtain ½-maximal H3 receptor occupancy in the brain following intraperitoneal administration. The dose values shown in Table 5 represent the dosage of drug utilized during the food intake studies. In all cases, the tested dose exceeded the amount needed to obtain ½-maximal H3 receptor occupancy in the brain.

[2] = target: T1, Histamine H3 receptor (Rattus norvegicus, UniProt Q9QYN8); experiment: Histamine H3 receptor binding analysis, [3H]-Nα-methylhistamine competition in rat cerebral cortical membranes, with and without GTPγS; conditions: for remaining activity at 30 pM: 0.03 nM of compound; for remaining activity at 30 pM / remaining activity at 0.0001 µM / remaining activity at 0.0003 µM / remaining activity at 0.001 µM / remaining activity at 0.003 µM / remaining activity at 0.01 µM / remaining activity at 0.03 µM / remaining activity at 0.1 µM / remaining activity at 0.3 µM / remaining activity at 1 µM: read-out: percent of [3H]-Nα-methylhistamine bound (mean); for remaining activity at 0.0001 µM: 0.1 nM of compound; for remaining activity at 0.0003 µM: 0.3 nM of compound; for remaining activity at 0.001 µM: 1 nM of compound; for remaining activity at 0.003 µM: 3 nM of compound; for remaining activity at 0.01 µM: 10 nM of compound; for remaining activity at 0.03 µM: 30 nM of compound; for remaining activity at 0.1 µM: 100 nM of compound; for remaining activity at 0.3 µM: 300 nM of compound; for remaining activity at 1 µM: 1000 nM of compound
T1 construct: The cerebral cortical tissues were harvested and frozen on dry ice; from tissue; host or cells: cerebral cortex membranes of male Sprague-Dawley rats
Description: A histamine H3 receptor binding analysis to determine the affinity of various imidazole derivatives for G-protein uncoupled receptors was performed as follows. […] Animals were acclimated to laboratory conditions for a minimum of one week prior to tissue harvesting.
Animals were anesthetized by NO2 inhalation and euthanized by rapid decapitation. The cerebral cortical tissues were harvested and frozen on dry ice. Rat corticies were mechanically homogenized using a Tissue Tearer in 25 mM Tris buffer (pH 7.5 at 4° C.) containing: EDTA (10 mM), phenylmethylsulfonyl fluoride (0.1 mM), chymostatin and leupeptin (each 0.2 mg/50 mL). The homogenate was centrifuged in a Sorvall centrifuge at 40,000×g for 30 minutes. The pellet was re-suspended in 25 ml water and lysed on ice for 30 minutes. The homogenate was then re-centrifuged and the membrane lysis was repeated. The membranes were centrifuged and the final membrane pellets were resuspended in 14 volumes of water to yield approximately 200 μg protein/100 μl final concentration. The suspension was stored frozen at −80° C. prior to use. Protein concentrations were determined using the Coomassie Plus Protein Assay (available from Pierce of Rockford, Ill.).
GTPγS causes dissociation of G-protein from receptors. Data are shown as percent of [^3H]-N^α-methylhistamine bound (mean) for each table.

[3] = target: T2, H3 receptor (Rattus norvegicus, UniProt Q9QYN8); experiment: Ex vivo binding: H3 receptor occupancy in the brain following intraperitoneal administration
T2 construct: ½-maximal H3 receptor occupancy in the brain following intraperitoneal administration; from tissue; host or cells: brain of dosed animals
Text: as §1

T1 sequence (Q9QYN8 whole entry): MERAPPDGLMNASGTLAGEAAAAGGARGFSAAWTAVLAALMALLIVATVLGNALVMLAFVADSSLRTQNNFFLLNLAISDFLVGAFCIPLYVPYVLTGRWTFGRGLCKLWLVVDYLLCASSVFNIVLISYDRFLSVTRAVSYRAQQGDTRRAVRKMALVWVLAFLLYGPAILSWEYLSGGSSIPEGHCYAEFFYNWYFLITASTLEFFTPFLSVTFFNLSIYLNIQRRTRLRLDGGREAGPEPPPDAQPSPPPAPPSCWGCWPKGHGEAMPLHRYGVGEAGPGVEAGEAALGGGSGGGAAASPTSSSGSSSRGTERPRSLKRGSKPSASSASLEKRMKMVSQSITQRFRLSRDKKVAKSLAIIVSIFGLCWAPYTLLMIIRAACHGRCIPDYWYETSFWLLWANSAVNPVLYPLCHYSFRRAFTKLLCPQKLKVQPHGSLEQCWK
T2 sequence (Q9QYN8 whole entry): as above

C(=C/CCC1CCCCC1)/CCc1c[nH]cn1 [Compound 2, (3Z)-4-(6-cyclohexylhex-3-en-1-yl)imidazole]
effect on food consumption by rats [1]: no measurable effect
remaining activity at 30 pM ([2]; Tris-GTPγS): 98.3%
remaining activity at 30 pM ([2]; Tris): 98.5%
remaining activity at 0.0001 µM ([2]; Tris-GTPγS): 107%
remaining activity at 0.0001 µM ([2]; Tris): 96.7%
remaining activity at 0.0003 µM ([2]; Tris-GTPγS): 103%
remaining activity at 0.0003 µM ([2]; Tris): 96.7%
remaining activity at 0.001 µM ([2]; Tris-GTPγS): 91.1%
remaining activity at 0.001 µM ([2]; Tris): 99.2%
remaining activity at 0.003 µM ([2]; Tris-GTPγS): 77.4%
remaining activity at 0.003 µM ([2]; Tris): 88.7%
remaining activity at 0.01 µM ([2]; Tris-GTPγS): 54.8%
remaining activity at 0.01 µM ([2]; Tris): 60.1%
remaining activity at 0.03 µM ([2]; Tris-GTPγS): 26.2%
remaining activity at 0.03 µM ([2]; Tris): 32.6%
remaining activity at 0.1 µM ([2]; Tris-GTPγS): 10.7%
remaining activity at 0.1 µM ([2]; Tris): 13.5%
remaining activity at 0.3 µM ([2]; Tris-GTPγS): 4.4%
remaining activity at 0.3 µM ([2]; Tris): 4.5%
remaining activity at 1 µM ([2]; Tris-GTPγS): 3.4%
remaining activity at 1 µM ([2]; Tris): 0.4%
Ki ([2]; GTPγS-treated receptor preparation (G-protein uncoupled), read-out: Ki (+) GTPγS): 3.6 nM
Ki Ratio (−/+) ([2]; Ki without GTPγS / Ki with GTPγS): 1.3
binding to GTPγS-treated cortical membrane preparation compared with non-treated preparation ([2]; result in words): relatively little difference in binding
Ki ([2]; untreated receptor preparation (mixture of coupled and uncoupled H3 receptors), read-out: Ki (−) GTPγS): 4.6 nM
Ex Vivo Binding (drug dose required to obtain ½-maximal H3 receptor occupancy in the brain) [3]: 0.92 ± 0.01 mg/kg
